Laboratory results published in US10077288B2, “Hydroxystatin derivatives for the treatment of arthrosis” (Merck Patent GmbH, priority 2012, dated 2018).

Tests used:
[1] = tested on: bovine explants (cartilage degradation, liberation of GAG); experiment: Cartilage explant assay: pH-induced cartilage degradation, GAG release; format: cell-based; settings: Bos taurus, 72 h, pH 5.5, 3 days
Source text: EXAMPLE 5: CARTILAGE EXPLANT ASSAY
In order to investigate the effect of potential cathepsin D inhibitors on cartilage degradation, a pH-induced model based on bovine explants is used. The pH of the medium in which the explants are cultivated is matched here to the pathophysiological pH of an arthrotic knee. This pH is pH 5.5. In this ex vivo model, potential cathepsin D inhibitors are subsequently investigated for their action with respect to stopping of the cartilage degradation process. If the cartilage is destroyed, glycosaminoglycans (GAGs) are released into the cell culture supernatant. The amount of GAGs liberated can be determined quantitatively with the aid of DMMB (dimethylmethylene blue hydrochloride). If sulfated GAGs are detected using dimethylmethylene blue hydrochloride, the decrease in the absorption at 633 nm is utilised. […] In order to determine the concentration, a calibration line is also recorded using chondroitin sulfate.
1.) Procedure: pH-Induced Cartilage Degradation of Bovine Explants
The bovine explants are firstly prepared. The induction of the cartilage degradation is carried out in 96-multiwell plates. One explant is cultivated per well. In each case, 200 μl of DMEM (incubation medium pH 5.5) without FBS+30 μg/ml of ascorbic acid are added. Thus negative control, explants (n=4) are incubated at pH 7.4 (without FBS). This control is not included in the calculation of the data, but instead ensures that the pH change has the desired effect on the liberation of GAG. At this point, the substances to be tested are added. No pre-incubation of the explants is carried out. The explants are cultivated with the corresponding substances for 3 days in the incubator at 37° C. and 7.5% CO2.
In order to investigate the effect of cathepsin D inhibitors on the liberation of GAG (glycosaminoglycan), the substances are employed in the desired concentration and cultivated for 3 days. The compounds to be tested are tested in a first experiment in a concentration of 1 μM and 1% of DMSO. Substances which have an effect of >50% on the liberation of GAG (this corresponds to <50% of the control in the Assay Explorer) are tested in the next experiment at 100 nM and 1% of DMSO. Substances which have an effect of >50% on the liberation of GAG under these conditions (this corresponds to <50% of the control in the Assay Explorer) are tested in a concentration/effect relationship. The compounds here are investigated in the following concentrations: 30 μM, 10 μM, 3 μM, 1 μM, 0.3 μM, 0.1 μM, 0.03 μM, 0.01 μM.
The positive control used is pepstatin A with a concentration of 0.01 μM. The assay window is defined by the control (pH 5.5), defined as 0% effect, and the control pH 5.5+0.01 μM pepstatin A, defined as 100% effect. After incubation for 3 days, the cell culture supernatants are collected and stored at −20° C. or measured directly. The amount of liberated GAG is measured photometrically.
The effect (1 value) of the respective substance in % based on the positive control (pH 5.5+0.01 μM pepstatin A) and the negative control (pH 5.5) is reported for concentrations of 1 μM and 100 nM. The value represents the average of 4 replicants. In the determination of a concentration/effect relationship, an IC50 value is reported to the database (Assay Explorer).
The cell culture supernatants (200 μl) are either measured directly or stored at −20° C. […] A rapid colour reaction occurs, which is subsequently measured at 633 nm using a plate reader (for example Envision). […]

recombinant human renin = target: T1, recombinant human renin (Homo sapiens, UniProt P00797); experiment: In-vitro fluorescence assay for identification of renin-inhibitory activity; format: biochemical; settings: recombinant human renin 10 nM, FRET substrate 5 μM, pH 7.2; read-out: Renin selectivity IC50
T1 construct: purchased Proteos, Kalamazoo, Mich
T1 sequence (P00797 67-406): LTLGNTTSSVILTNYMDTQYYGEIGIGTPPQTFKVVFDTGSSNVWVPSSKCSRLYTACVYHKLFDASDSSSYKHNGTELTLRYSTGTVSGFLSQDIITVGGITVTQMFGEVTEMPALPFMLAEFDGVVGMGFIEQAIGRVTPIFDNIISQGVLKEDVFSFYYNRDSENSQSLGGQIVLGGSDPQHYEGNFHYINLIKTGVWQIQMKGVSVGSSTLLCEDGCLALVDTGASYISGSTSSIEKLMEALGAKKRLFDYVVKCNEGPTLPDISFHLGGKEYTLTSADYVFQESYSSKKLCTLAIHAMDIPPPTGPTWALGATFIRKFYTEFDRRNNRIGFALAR
Method: EXAMPLE 8: IN-VITRO FLUORESCENCE ASSAY FOR IDENTIFICATION OF RENIN-INHIBITORY ACTIVITY
In order to identify modulators of renin activity, a continuous enzymatic test was carried out with a synthetic peptide which carries a fluorescent group Edans (=(5-(aminoethyl)aminonaphthalenesulfonate) which is quenched by energy transfer from a Dabcyl (4′-dimethylaminoazobenzene-4-carboxylate) group on the same molecule, in Greiner 384-well microtitre plates. Cleavage of the peptidic substrate by renin causes an increase in the fluorescence intensity. In order to determine the efficacy of substances, the time-dependent increase in the fluorescence intensity in the presence of the substance was compared with the time-dependent increase in fluorescence in the absence of substances. The reference substance used was renin inhibitor 2 (Z-Arg-Arg-Pro-Phe-His-Sta-Ile-His N-Boc-Lys methyl ester Z) (Sigma-Aldrich). The substrate used was renin FRET substrate I (DABCYL-g-Abu-Ile-His-Pro-Phe-His-Leu-Val-Ile-His-Thr-EDANS) (Anaspec, Fremont Calif.). The enzyme employed was recombinant human renin (Pro-teos, Kalamazoo, Mich.) in a final concentration of 10 nM. The test was carried out in 50 mM Mops buffer, 1.5% (v/v) of DMSO, 0.1% (w/v) of Igepal®, pH 7.2, 0.5% (w/v) of BSA. 2 μl of each substance solution with serially diluted substance concentration were added to in each case 4 μl of renin solution and incubated at room temperature for 15 min. The reaction was started by addition of 4 μl of substrate solution (final concentration 5 μM). After carrying out a starting-point fluorescence measurement (excitation wavelength 340 nm/emission wavelength 495 nm) using an Envision multilabel reader (Perkin Elmer), the reaction was incubated at 37° C. for 60 min. The amount of peptide fragment cleaved off during the reaction time was subsequently measured by determination of the increase in the fluorescence intensity at 495 nm (excitation wavelength 340 nm).
Result: all compounds measured have an IC50 of the renin selectivity of >30 μM (see Table 2 in Example 1).

| IC50 (recombinant human renin) [nM] | Compound | IC50 [1] [nM] |
| --- | --- | --- |
| – | CC[C@H](C)[C@H](NC(=O)C[C@H](O)[C@H](Cc1ccccc1)NC(=O)[C@@H](NC(=O)Cc1cccc(OC)c1)C(C)C)C(=O)N[C@H](C(=O)O)C(C)C [Compound 20, (S)-2-[(2S,3S)-2-((3S,4S)-3-hydroxy-4-{(S)-2-[2-(3-methoxyphenyl)-acetylamino]-3-methylbutyrylamino}-5-phenylpentanoylamino)-3-methylpentanoylamino]-3-methylbutyric acid] | 47.9 |
| 20000 | CC[C@H](C)[C@H](NC(=O)C[C@H](O)[C@H](Cc1ccccc1)NC(=O)[C@@H](NC(=O)CCCc1ccccc1)C(C)C)C(=O)N[C@H](C(=O)O)C(C)C [Compound 5, (S)-2-((2S,3S)-2-{(3S,4S)-3-hydroxy-4-[(S)-3-methyl-2-(4-phenyl-butyrylamino)butyrylamino]-5-phenylpentanoylamino}-3-methylpentanoylamino)-3-methylbutyric acid] | 989 |
| – | CC[C@H](C)[C@H](NC(=O)C[C@H](O)[C@H](Cc1ccccc1)NC(=O)[C@@H](NC(=O)CCc1ccccc1)C(C)C)C(=O)N[C@H](C(=O)O)C(C)C [Compound 4, (S)-2-((2S,3S)-2-{(3S,4S)-3-hydroxy-4-[(S)-3-methyl-2-(3-phenyl-propionylamino)butyrylamino]-5-phenylpentanoylamino}-3-methylpentanoylamino)-3-methylbutyric acid] | 60.6 |
